Some test systems named below: HCT-15 colon; LOX IMVI melanoma; NCI-H522 lung; HL-60(TB) leukemia; K-562 leukemia; UACC-257 melanoma; UACC-62 melanoma; CAKI-1 renal; MDA-MB-231 breast; U251 CNS.
Holding throughout (assay): NCI anticancer screen, dose series, 48 h

SMILES strings stand for the structures.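 These data come from cells grown in 96-well plates and exposed to compound for 48 hours at five concentrations. TGI is the concentration that stops growth completely.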

Consider `Cc1ccc(C(=O)c2[nH]c(Nc3cc(C)ccn3)c(C(=S)Nc3ccccc3)c2N)cc1`, for which the TGI with HCT-15 colon, with LOX IMVI melanoma, with NCI-H522 lung, in the test with HL-60(TB) leukemia, with K-562 leukemia and in the test with UACC-257 melanoma was more than 100 µM throughout. The TGI in the test with UACC-62 melanoma, in the test with CAKI-1 renal, in the test on MDA-MB-231 breast and with U251 CNS was more than 100 µM in each case.

`CCN(C(=O)N[C@H](C(=O)N[C@@H](C)C(=O)OC)C(C)C)c1ccccc1`: the TGI is more than 100 µM in the test on HCT-15 colon; more than 100 µM in the test on LOX IMVI melanoma; 49.5 µM in the test with NCI-H522 lung; more than 100 µM with HL-60(TB) leukemia; more than 100 µM in the test with K-562 leukemia; 41.8 µM with UACC-257 melanoma. Besides, the TGI with UACC-62 melanoma is 55.7 µM; in the test with CAKI-1 renal, more than 100 µM; in the test with MDA-MB-231 breast it was more than 100 µM; in the test on U251 CNS, 86.6 µM.

As to `CCOC(=O)Cc1nn2c(=O)cc(C)nc2s1`, the TGI in the test with HCT-15 colon, in the test with LOX IMVI melanoma, in the test on NCI-H522 lung, in the test on HL-60(TB) leukemia, in the test with K-562 leukemia and in the test on UACC-257 melanoma was more than 100 µM each time. In addition, the TGI with UACC-62 melanoma, in the test on CAKI-1 renal, in the test with MDA-MB-231 breast and in the test on U251 CNS was more than 100 µM each time.

Regarding `CC(C)(C)OC(=O)c1ccc(NCc2cc(O)ccc2O)cc1`, the TGI in the test on HCT-15 colon amounted to 3.12 µM; with LOX IMVI melanoma it was 13.5 µM; in the test on NCI-H522 lung, 0.557 µM; in the test on HL-60(TB) leukemia, 4.08 µM; in the test on K-562 leukemia it was 38.1 µM; in the test on UACC-257 melanoma, 14.9 µM. For the same compound, the TGI turned out to be 15.9 µM in the test with UACC-62 melanoma, 2.61 µM with CAKI-1 renal, 9.31 µM in the test on MDA-MB-231 breast and 9.32 µM in the test on U251 CNS.

For the compound `C=C1CC=CC(C)(C)C1C/C=C(\C)C(O)CBr` (centres undefined), the TGI in the test with HCT-15 colon was more than 100 µM; in the test on LOX IMVI melanoma, 53.5 µM; with NCI-H522 lung it was 23.2 µM; with HL-60(TB) leukemia it was more than 100 µM; in the test on K-562 leukemia it was more than 100 µM; in the test on UACC-257 melanoma it was more than 100 µM. In addition, the TGI with UACC-62 melanoma is more than 100 µM; with CAKI-1 renal, 54.1 µM; in the test on MDA-MB-231 breast, more than 100 µM; in the test with U251 CNS, more than 100 µM.

With `O=C(/C=C1\C[C@H]2C=Nc3ccccc3C(=O)N2C1)NCCCCCNC(=O)/C=C1\C[C@H]2C=Nc3ccccc3C(=O)N2C1`, the TGI is 10.6 µM with HCT-15 colon; 4.47 µM in the test with LOX IMVI melanoma; 2.51 µM in the test on NCI-H522 lung; 6.13 µM with HL-60(TB) leukemia; more than 51.9 µM with K-562 leukemia; 15.7 µM in the test on UACC-257 melanoma. Moreover, the TGI worked out at 28.8 µM in the test with UACC-62 melanoma, 6.38 µM in the test on CAKI-1 renal, 30.4 µM in the test on MDA-MB-231 breast and 9.05 µM in the test with U251 CNS.

Regarding `CC(C)Cc1c(C#N)c(C#N)c(N)n1Cc1ccccc1`, the TGI with HCT-15 colon, in the test with LOX IMVI melanoma, with NCI-H522 lung, in the test on HL-60(TB) leukemia, in the test with K-562 leukemia and in the test on UACC-257 melanoma was more than 100 µM each time. Moreover, the TGI in the test on UACC-62 melanoma, with CAKI-1 renal, in the test with MDA-MB-231 breast and with U251 CNS was more than 100 µM in each case.

Take `CNc1ccc2c(c1)Cc1ccccc1-2`: the TGI is more than 100 µM with HCT-15 colon; more than 100 µM with LOX IMVI melanoma; 50.8 µM with NCI-H522 lung; more than 100 µM in the test with HL-60(TB) leukemia; more than 100 µM in the test on K-562 leukemia; more than 100 µM with UACC-257 melanoma. In addition, the TGI is 89.7 µM with UACC-62 melanoma, 90.7 µM with CAKI-1 renal, more than 100 µM in the test on MDA-MB-231 breast and more than 100 µM in the test with U251 CNS.

With `CC/C=C\C/C=C\C/C=C\CCCCCCCC(=O)OC(COC(=O)CCCCCCCCCCCCCCCCC)COC1OC(CO)C(O)C(O)C1O` (centres undefined), the TGI in the test on HCT-15 colon, with LOX IMVI melanoma, in the test on NCI-H522 lung, with HL-60(TB) leukemia, in the test with K-562 leukemia and in the test on UACC-257 melanoma was more than 25 µM in each case. Besides, the TGI in the test with UACC-62 melanoma, in the test with CAKI-1 renal, with MDA-MB-231 breast and in the test on U251 CNS was more than 25 µM throughout.

For the compound `C(=N/Nc1ccc(-c2nc3ccccc3[nH]2)cc1)/c1c(-c2ccccc2)[nH]c2ccccc12`, the TGI was more than 100 µM in the test with HCT-15 colon; more than 100 µM with LOX IMVI melanoma; 2.02 µM with NCI-H522 lung; 1.06 µM with HL-60(TB) leukemia; 11.9 µM in the test on K-562 leukemia; more than 100 µM with UACC-257 melanoma. For the same compound, the TGI in the test on CAKI-1 renal was more than 100 µM; in the test with MDA-MB-231 breast, 12 µM; in the test with U251 CNS it was 8.69 µM.

The values above are taken from PubChem BioAssay (NCI).
